Where two headings read alike, the source gives them in different places.
What was measured:
[1] = Metabolic stability in liver microsomes (NADPH); conditions: for The in vitro intrinsic clearance in liver microsomes (CLint, in vitro, µL/min/mg protein) Human: 0.5 mg/mL liver microsomes, NADPH, 37°C
[2] = Metabolic stability in liver microsomes (NADPH); conditions: for The in vitro intrinsic clearance in liver microsomes (CLint, in vitro, µL/min/mg protein) Rat: 0.5 mg/mL liver microsomes, NADPH, 37°C
[3] = Metabolic stability in liver microsomes (NADPH); conditions: for The in vitro intrinsic clearance in liver microsomes (CLint, in vitro, µL/min/mg protein) Dog: 0.5 mg/mL liver microsomes, NADPH, 37°C
AGS = test: Cell proliferation experiment (CellTiter-Glo); type: cell-based; conditions: read-out: IC50(nM) AGS
[4] = Metabolic stability in liver microsomes (NADPH); conditions: for The in vitro intrinsic clearance in liver microsomes (CLint, in vitro, µL/min/mg protein) Mouse: 0.5 mg/mL liver microsomes, NADPH, 37°C
KRAS G12D [5] = target: T1, KRAS G12D (Homo sapiens, UniProt P01116, G12D)
SW620 = test: Cell proliferation experiment (CellTiter-Glo); type: cell-based; conditions: read-out: IC50(nM) SW620
in vitro [6] = conditions: rat, microsomes
[7] = Phase II metabolic stability in liver microsomes (UDPGA); type: in vitro ADME, Human; conditions: for 60 minutes remaining percentage % Human: 0.5 mg/mL liver microsomes, Alamethicin; for metabolism by UGT in human liver microsomes: 60 min
Description: (§1) Example 6 Study on Phase II Metabolic Stability of Compounds in Human, Rat, Mouse, and Dog Liver Microsomes
(§2) Experimental Method: A diluted solution containing 0.5 mg/mL liver microsomes with K-buffer and MgCl2 was prepared: Table 8
(§3) 358 µL of the diluted liver microsome solution prepared in Table 8 above was added to the pre-set wells of the incubation plate, labeled as the incubation plate. 2 µL of compound working solution (400 µM) (final concentration of DMSO ≤ 0.5%) was added. The incubation plate was placed in a 37°C constant temperature shaker and pre-incubated for 5-10 min. Then, 40 µL of UDPGA (20 mM) was added to the incubation plate to initiate the reaction, and timing started. At each predetermined time point (0, 5, 15, 60 min), 50 µL of samples were taken from the incubation plate and added to the precipitation plate containing 200 µL of internal standard. Samples were mixed thoroughly, centrifuged at 4°C and 5000 rpm for 10 minutes. The supernatant after centrifugation was added to pre-added ultrapure water at an appropriate ratio, mixed thoroughly on a shaker at room temperature, and subjected to LC-MS/MS analysis.
(§4) Data processing: The peak areas of the analyte and the internal standard in samples were measured at different time points. The peak area ratio of the analyte to the internal standard at non-zero time points compared to the peak area ratio of the analyte to the internal standard in the 0 min sample was used to calculate the remaining percentage of the parent drug.

in vitro [8] = conditions: dog, microsomes
[9] = PK study in ICR mice (whole blood); type: in vivo; conditions: Female ICR mice, IV 1 mg/kg
Description: Example 8 PK Study of Compound in ICR Mice (whole blood)
The compound was mixed with the vehicle (10% DMSO / 5% Solutol HS 15 / 85% saline), vortexed, and sonicated to prepare a clear solution at 0.2 mg/mL. Female ICR mice aged 6 to 7 weeks (non-fasted) were intravenously administered the compound. Whole blood was collected at specified time points. Drug concentration was analyzed by LC-MS/MS, and pharmacokinetic parameters were calculated using Phoenix WinNonlin software (Pharsight Corporation, USA). Table 11 Mouse PK Data for Intravenous Compound Monotherapy

KRAS G12D [10] = target: T1, KRAS G12D; test: cell-based; conditions: AGS
in vitro [11] = conditions: human, microsomes
in vitro [12] = conditions: mouse, microsomes
H358 = test: Cell proliferation experiment (CellTiter-Glo); type: cell-based; conditions: Homo sapiens, NCI-H358; H358, KRAS mutation type G12C; 96 h incubation
[13] = Phase II metabolic stability in liver microsomes (UDPGA); type: in vitro ADME; conditions: 0.5 mg/mL liver microsomes, Alamethicin
Description: as §1, §2, §3, §4

PK59 = test: Cell proliferation experiment (CellTiter-Glo); type: cell-based; conditions: PK-59; PK59, KRAS mutation type G12D; 96 h incubation
H1975 = test: Cell proliferation experiment (CellTiter-Glo); type: cell-based; conditions: Homo sapiens, NCI-H1975; H1975, KRAS WT; 96 h incubation
HCT116 = test: Cell proliferation experiment (CellTiter-Glo); type: cell-based; conditions: Homo sapiens, HCT-116; HCT116, KRAS mutation type G13D; 96 h incubation

(2S,4R)-1-((S)-2-(5-(((3S,7aS)-7a-(((7-(8-ethyl-7-fluoro-3-hydroxynaphthalen-1-yl)-8-fluoro-4-( (R)-3-hydroxy-3-methylpiperidin-1-yl)pyrido[4,3-d]pyrimidin-2-yl)oxy)methyl)-6-methylenehex ahydro-1H-pyrrolidin-3-yl)methoxy)methyl)-1H-1,2,3-triazol-1-yl)-3-methylbutanoyl)-4-hydrox y-N-(((S)-1-(4-(4-methylthiazol-5-yl)phenyl)ethyl)pyrrolidine-2-carboxamide [Compound 120]
The in vitro intrinsic clearance in liver microsomes (CLint, in vitro, µL/min/mg protein) Human [1]: 128 µL/min/mg protein
The in vitro intrinsic clearance in liver microsomes (CLint, in vitro, µL/min/mg protein) Rat [2]: 9.3 µL/min/mg protein
The in vitro intrinsic clearance in liver microsomes (CLint, in vitro, µL/min/mg protein) Dog [3]: 113 µL/min/mg protein
IC50 (AGS): 12 nM
The in vitro intrinsic clearance in liver microsomes (CLint, in vitro, µL/min/mg protein) Mouse [4]: 48.5 µL/min/mg protein
DC50 (KRAS G12D [5]): 11 nM
Dmax (%) (KRAS G12D [5]): 95%
IC50 (SW620): 102 nM

CCc1c(F)ccc2cc(O)cc(-c3ncc4c(N5CCC[C@@](C)(O)C5)nc(OCC5(CN6CCC7(CC6)CC(c6cn([C@H](C(=O)N8C[C@H](O)C[C@H]8C(=O)N[C@@H](C)c8ccc(-c9scnc9C)cc8)C(C)C)nn6)C7)CC5)nc4c3F)c12 [Compound 71]
microsomal CLint (in vitro [6]): 1.1 µL/min/mg
60 minutes remaining percentage % Human [7]: 94.6%
metabolism by UGT in human liver microsomes [7]: not metabolized or are minimally metabolized
microsomal CLint (in vitro [8]): 6.5 µL/min/mg
Cl_obs [9]: 16.3 mL/min/kg
Vss_obs [9]: 1.45 L/kg
AUC(0-t) ([9]; mouse): 1030 ng·h/mL
half-life ([9]; mouse): 6.08 h
C0 ([9]; mouse, read-out: C0): 5560 ng/mL
Dmax (KRAS G12D [10]): 95%
microsomal CLint (in vitro [11]): 5.9 µL/min/mg
microsomal CLint (in vitro [12]): 9.8 µL/min/mg
IC50 (AGS; Homo sapiens, AGS, 96 h): 18 nM
IC50 (H358): 39 nM
DC50 (KRAS G12D [5]): 20 nM
60 minutes remaining percentage % Dog [13]: 108%
60 minutes remaining percentage % Mouse [13]: 93%
60 minutes remaining percentage % Rat [13]: 75.4%
IC50 (SW620; Homo sapiens, SW-620, 96 h): 85 nM

CCc1c(F)ccc2cc(O)cc(-c3ncc4c(N5CCC[C@@](C)(O)C5)nc(OCC5(CN6CCC7(CC6)CN(c6ccc(-c8cn([C@H](C(=O)N9C[C@H](O)C[C@H]9C(=O)N[C@@H](C)c9ccc(-c%10scnc%10C)cc9)C(C)C)nn8)cn6)C7)CC5)nc4c3F)c12 [Compound 118]
microsomal CLint (in vitro [6]): 3.4 µL/min/mg
IC50 (PK59): 12.2 nM
microsomal CLint (in vitro [8]): 17.2 µL/min/mg
IC50 (H1975): > 10000 nM
Dmax (KRAS G12D [10]): 95%
microsomal CLint (in vitro [11]): 21.3 µL/min/mg
microsomal CLint (in vitro [12]): 11.4 µL/min/mg
IC50 (AGS; Homo sapiens, AGS, 96 h): 13 nM
IC50 (HCT116): 37 nM
DC50 (KRAS G12D [5]): 11 nM
IC50 (SW620; Homo sapiens, SW-620, 96 h): 26 nM

CCc1c(F)ccc2cc(O)cc(-c3ncc4c(N5CCC[C@@](C)(O)C5)nc(OCC5(CN6CCC7(CC6)CC(c6cn([C@H](C(=O)N8C[C@H](O)C[C@H]8C(=O)N[C@@H](C)c8ccc(-c9scnc9C)cc8)C(C)C)nn6)C7)CC5)nc4c3F)c12 [Compound 73, (2S,4R)-1-((S)-2-(4-(7-((1-((7-(8-ethyl-7-fluoro-3-hydroxynaphthalen-1-yl)-8-fluoro-4-(((R)-3-hydroxy-3-methylpiperidin-1-yl)pyrido[4,3-d]pyrimidin-2-yl)oxy)methyl)cyclopropyl)methyl)-7-azaspiro[3.5]nonan-2-yl)-1H-1,2,3-triazol-1-yl)-3-methylbutanoyl)-4-hydroxy-N-((S)-1-(4-(4-methylthiazol-5-yl)phenyl)ethyl)pyrrolidine-2-carboxamide]
The in vitro intrinsic clearance in liver microsomes (CLint, in vitro, µL/min/mg protein) Human [1]: 13.8 µL/min/mg protein
The in vitro intrinsic clearance in liver microsomes (CLint, in vitro, µL/min/mg protein) Rat [2]: 9.8 µL/min/mg protein
AUClast [9]: 2051 ng·h/mL
C0 [9]: 3008 ng/mL
t1/2 [9]: 5.07 h
Cl_obs ([9]; 1 mg/kg): 7.97 mL/min/kg
Vss_obs ([9]; 1 mg/kg): 1.91 L/kg
The in vitro intrinsic clearance in liver microsomes (CLint, in vitro, µL/min/mg protein) Dog [3]: 18.9 µL/min/mg protein
IC50 (AGS): 22 nM
The in vitro intrinsic clearance in liver microsomes (CLint, in vitro, µL/min/mg protein) Mouse [4]: 7.1 µL/min/mg protein
DC50 (KRAS G12D [5]): 17 nM
Dmax (%) (KRAS G12D [5]): 95%
IC50 (SW620): 81 nM

C=C1CN2[C@H](COC(=O)N3CCC(Cc4cn([C@H](C(=O)N5C[C@H](O)C[C@H]5C(=O)N[C@@H](C)c5ccc(-c6scnc6C)cc5)C(C)C)nn4)CC3)CC[C@@]2(COc2nc(N3CCC[C@@](C)(O)C3)c3cnc(-c4cc(O)cc5ccc(F)c(CC)c45)c(F)c3n2)C1 [Compound 141, ((3S,7aS)-7a-(((7-(8-ethyl-7-fluoro-3-hydroxynaphthalen-1-yl)-8-fluoro-4-((R)-3-hydroxy-3-methylpiperidin-1-yl)pyrido[4,3-d]pyrimidin-2-yl)oxy)methyl)-6-methylenehexahydro-1H-pyrrolizin-3-yl)methyl 4-((1-((S)-1-((2S,4R)-4-hydroxy-2-(((S)-1-(4-(4-methylthiazol-5-yl)phenyl)ethyl)carbamoyl)pyrrolidin-1-yl)-3-methyl-1-oxobutan-2-yl)-1H-1,2,3-triazol-4-yl)methyl)piperidine-1-carboxylate]
microsomal CLint at 1 µM ([1]; human, liver microsomes): 21.2 µL/min/mg
microsomal CLint at 1 µM ([2]; rat, liver microsomes): 3.9 µL/min/mg
microsomal CLint at 1 µM ([3]; dog, liver microsomes): 12.9 µL/min/mg
IC50 (AGS; Homo sapiens, AGS, 96 h): 31 nM
microsomal CLint at 1 µM ([4]; mouse, liver microsomes): 12.1 µL/min/mg
IC50 (SW620; Homo sapiens, SW-620, 96 h): 250 nM

((7-(8-ethyl-7-fluoro-3-hydroxynaphthalen-1-yl)-8-fluoro-4-(R)-3-hydroxy-3-methylpiperidin-1-yl)pyrido[4,3-d]pyrimidin-2-yl)oxy)methyl)-6-methylenehexahydro-1H-pyrrolizin-3-yl)methyl 2-(1-(S)-1-(2S,4R)-4-hydroxy-2-(S)-1-(4-(4-methylthiazol-5-yl)phenyl)ethylcarbamoyl)pyrrolidi n-1-yl)-3-methyl-1-oxobutan-2-yl)-1H-1,2,3-triazol-4-yl)-7-azaspiro[3.5]nonane-7-carboxylate [Compound 127]
The in vitro intrinsic clearance in liver microsomes (CLint, in vitro, µL/min/mg protein) Human [1]: 52.8 µL/min/mg protein
The in vitro intrinsic clearance in liver microsomes (CLint, in vitro, µL/min/mg protein) Rat [2]: 15.6 µL/min/mg protein
The in vitro intrinsic clearance in liver microsomes (CLint, in vitro, µL/min/mg protein) Dog [3]: 31.5 µL/min/mg protein
IC50 (AGS): 47 nM
The in vitro intrinsic clearance in liver microsomes (CLint, in vitro, µL/min/mg protein) Mouse [4]: 42.4 µL/min/mg protein
IC50 (SW620): 223 nM

CCc1c(F)ccc2cc(O)cc(-c3ncc4c(N5CCC[C@@](C)(O)C5)nc(OCC5(CN6CCC(COc7ccc(-c8cn([C@H](C(=O)N9C[C@H](O)C[C@H]9C(=O)N[C@@H](C)c9ccc(-c%10scnc%10C)cc9)C(C)C)nn8)cc7)CC6)CC5)nc4c3F)c12 [Compound 69]
microsomal CLint (in vitro [6]): 4.6 µL/min/mg
60 minutes remaining percentage % Human [7]: 98.4%
metabolism by UGT in human liver microsomes [7]: not metabolized or are minimally metabolized
microsomal CLint (in vitro [8]): 16.4 µL/min/mg
Dmax (KRAS G12D [10]): 95%
microsomal CLint (in vitro [11]): 9.8 µL/min/mg
microsomal CLint (in vitro [12]): 7.9 µL/min/mg
IC50 (AGS; Homo sapiens, AGS, 96 h): 14 nM
IC50 (H358): 42 nM
DC50 (KRAS G12D [5]): 25 nM
60 minutes remaining percentage % Dog [13]: 90.6%
60 minutes remaining percentage % Mouse [13]: 92%
60 minutes remaining percentage % Rat [13]: 99%
IC50 (SW620; Homo sapiens, SW-620, 96 h): 34 nM

— patent EP4631940A1, “COMPOUND TARGETING PAN-KRAS PROTEIN DEGRADATION AGENT AND USE THEREOF” (Betta Pharmaceuticals Co., Ltd., priority 2022, dated 2024)
